Experimental data as given in patent US20110059985A1, “NOVEL FORMULATION” (priority 2007, published 2011).
Like-named read-outs stand apart in the source and are kept apart here. Marks after values point to notes of the source that are not given here.

Experiments:
[1] = not measured, data according to Neues Rezeptur-Formularium, cited from earlier work
[2] = Abafungin solubility in excipients (Example 1); assay type: physicochemical
Experimental: To order to study the solubility of abafungin, abafungin was dissolved in a number of excipients.

[3] = Fungicidal concentrations of abafungin (stated in Example 4); assay type: cell-based

Cc1cc(C2CCCCC2)n(O)c(=O)c1 [Ciclopirox Olamine]
maximum solubility ([1]; Ethanol gel (NRF 11.84)): ~soluble*^5 | maximum solubility ([1]; Pure ethanol): ~soluble*^5 | maximum solubility ([1]; Pure water): ~1-3%*^5

Cc1ccc(Oc2ccccc2-c2csc(N=C3NCCCN3)n2)c(C)c1 [abafungin]
Not soluble ([2]; excipient: MPEG 550): ✓ | Not soluble ([2]; excipient: MPEG 2000): ✓ | Not soluble ([2]; excipient: PEG 400): ✓ | Not soluble ([2]; excipient: PEG 1500): ✓ | Not soluble ([2]; excipient: PEG 4500): ✓ | Not soluble ([2]; excipient: PEG 6000): ✓ | Not soluble ([2]; excipient: PEG 12000): ✓ | Not soluble ([2]; excipient: PEG 20000): ✓ | Not soluble ([2]; excipient: cetearyl ethylhexanoate (cosmetic oils)): ✓ | Not soluble ([2]; excipient: decyl oleate (cosmetic oils)): ✓ | Not soluble ([2]; excipient: ethanol): ✓ | Not soluble ([2]; excipient: ethanol 70%): ✓ | Not soluble ([2]; excipient: glycerine): ✓ | Not soluble ([2]; excipient: isopropanol): ✓ | Not soluble ([2]; excipient: isopropyl myristate (cosmetic oils)): ✓ | Not soluble ([2]; excipient: isopropyl palmitate (cosmetic oils)): ✓ | Not soluble ([2]; excipient: medium chain triglyceride (cosmetic oils)): ✓ | Not soluble ([2]; excipient: propylene glycol): ✓ | Soluble ([2]; excipient: transcutol): ✓ (3%) | Not soluble ([2]; excipient: water): ✓ | solubility ([2]; mixture of water, polyethylene glycol, polyethylene glycol monomethyl ether and an acid such as formic acid): soluble | fungicidal concentrations [3]: 16 to 30 µg/mL
